One series addresses sites associated to calcium channels labeled by ^3H-Nitrendipine. The series is described as follows: Binding to Ca++ channel sites labelled by 3H-Nitrendipine in rat brain. The settings on record: rat brain cortex membranes; ^3H-Nitrendipine 0.5 nM, 60' at 30°C; inactive at 10^-5 M not tested higher; read-out: IC50 Uptake sites of Ca^++ channels labelled with ^3H-Nitrendipine. The procedure:
(§1) The "binding" of the tested compounds to the sites associated to calcium channels labeled by ^3H-Nitrendipine, ^3H-Verapamil and ^3H-Diltiazem has been assayed in rat brain according to the method of Schoemaker H. et al. Eur. J. Pharmacol. 111, 273 (1985) and of Reynolds I.J. et al. Eur. J. Pharmacol. 95, 319 (1983).
(§2) Brain cortices are removed from decollated male CrI: CD (SD) BR rats weighing 250-300 g.
(§3) The tissues were homogenized in Tris-HCl buffer and centrifuged at 50000 x g for 10 minutes. The pellet was washed twice through a fresh buffer suspension and centrifuged at 50000 x g for 10 minutes.
(§4) After suspension of the precipitate in the incubation buffer the compounds under examination were added to the medium, starting from a concentration 10^-5 M. Incubation conditions were: ^3H-Nitrendipine (0.5 nM) x 60' at 30°C; ^3H-Verapamil (10 µM) x 20' at 37°C; and ^3H-d-cis Diltiazem (4 nM) x 60' at 30°C. Final volume was 1 ml. Incubation was stopped by rapid filtration under vacuum through GF/B (0.1% […]) fiber filters which were washed with cold incubation buffer (3 x 3 ml) using the system of filtration Brandel Cell Harvester. Filters were put in 8 ml of Optifluor (Packard) and the radioactivity bound to the membranes trapped by fibers counted by liquid scintillation spectrometer TRI-CARB 1900 CA (Packard). The counting efficiency was about 50%.
(§5) The percentage inhibition of the specific ^3H-ligand binding to its respective receptors was calculated for each concentration (mean of three incubates).
(§6) The competition curve, the slope of the curve and IC50^± standard deviation values (drug concentration that reduces specific ^3H-ligand binding to its respective receptors by 50% of its maximum value) were calculated by using the "Allfit" program (De Lean A. et al., Am. J. Physiol. 235, E97, 1978) running on an IBM 55-SH.
On to `CCCCCCCOC(=O)C[C@H](C[N+](C)(C)C)OC(=O)CC(C)C` [ST 697], for which the IC50 (commonly the concentration at which inhibition is half-maximal) is above 10 µM.
On the same count and under the same terms, the same measure for `CCCCOC(=O)C[C@H](C[N+](C)(C)C)OC(=O)CC(C)C` [ST 683]: above 10 µM; for `CCCCCCCOC(=O)C[C@H](C[N+](C)(C)C)OC(=O)C(C)C` [ST 713, isobutyryl L-carnitine heptyl ester chloride]: above 10 µM; for `CCCCCCCCCCCOC(=O)C[C@H](C[N+](C)(C)C)OC(=O)CC(C)C` [ST 722, isovaleryl L-carnitine undecyl ester chloride]: 1.6 µM.

Another series relates to mice. The series is described as follows: Assessment of behaviour and mortality in mice (Irwin's method). Format: in vivo. The settings on record: dose 100 (mg/kg per os), dead/treated, 4 animals/dose. The method, then: The assessment of normal behaviour in mice was carried out following S. Irwin's method, Psychopharmacologia 13, 222 (1968). This method allows alterations in some behavioural, neurophysiologic and neurovegetative parameters to be detected, which are directly observable by the researcher. The study was conducted using male CrI: (CD-I)(ICR)BR mice (Charles River - Italy) weighing 22-25 g, following oral administration of the compounds suspended in carboxymethylcellulose (0.5% by weight in H2O) to groups of 4 animals/dose.
The animals were continuously kept under observation for five hours following treatment and twice a day in the subsequent five days. Mortality was also observed during the overall test period. The initial dose was 1000 mg/kg per os; lower doses were administered in case of death or if the initial dose brought about an excessive response.
Consider `CCCCCCCOC(=O)C[C@H](C[N+](C)(C)C)OC(=O)CC(C)C` [ST 697], for which the Death rate is on record as 0/4.
Same read-out and setting: the same measure for `CCCCCCCOC(=O)C[C@H](C[N+](C)(C)C)OC(=O)C(C)C` [ST 713, isobutyryl L-carnitine heptyl ester chloride]: 0/4.

Staying with this series, now noted: dose 100 (mg/kg per os), n.e. = no effect, (*) = in connection with death rate only.
As for `CCCCCCCOC(=O)C[C@H](C[N+](C)(C)C)OC(=O)CC(C)C` [ST 697], the Symptoms result is “n.e”.
On the same count and under the same terms, the same measure for `CCCCCCCOC(=O)C[C@H](C[N+](C)(C)C)OC(=O)C(C)C` [ST 713, isobutyryl L-carnitine heptyl ester chloride]: “n.e”.

The series is the same for the next values; noted with them: dose 300 (mg/kg per os), dead/treated, 4 animals/dose.
On to `CCCCCCCOC(=O)C[C@H](C[N+](C)(C)C)OC(=O)CC(C)C` [ST 697], for which the Death rate is listed as 1/4.
As to `CCCCOC(=O)C[C@H](C[N+](C)(C)C)OC(=O)CC(C)C` [ST 683], the Death rate is 0/4.
On the same count and under the same terms, the same measure for `CCCCCCCOC(=O)C[C@H](C[N+](C)(C)C)OC(=O)C(C)C` [ST 713, isobutyryl L-carnitine heptyl ester chloride]: 2/4.

Still in this series, the particulars now being: dose 300 (mg/kg per os), n.e. = no effect, (*) = in connection with death rate only.
As to `CCCCCCCOC(=O)C[C@H](C[N+](C)(C)C)OC(=O)CC(C)C` [ST 697], the Symptoms result is given as “convulsions (*)”.
Take `CCCCOC(=O)C[C@H](C[N+](C)(C)C)OC(=O)CC(C)C` [ST 683]: the Symptoms entry was “n.e”.
The same measure, in the same setting: the result for `CCCCCCCOC(=O)C[C@H](C[N+](C)(C)C)OC(=O)C(C)C` [ST 713, isobutyryl L-carnitine heptyl ester chloride] reads “convulsions (*)”.

Still in this series, the particulars now being: dose 600 (mg/kg per os), dead/treated, 4 animals/dose.
With `CCCCCCCOC(=O)C[C@H](C[N+](C)(C)C)OC(=O)CC(C)C` [ST 697], the Death rate is listed as 2/4.
Turning to `CCCCOC(=O)C[C@H](C[N+](C)(C)C)OC(=O)CC(C)C` [ST 683], the Death rate is on record as 2/4.
Take `CCCCCCCOC(=O)C[C@H](C[N+](C)(C)C)OC(=O)C(C)C` [ST 713, isobutyryl L-carnitine heptyl ester chloride]: the Death rate was 3/4.

The series is the same for the next values; noted with them: dose 600 (mg/kg per os), n.e. = no effect, (*) = in connection with death rate only.
As for `CCCCCCCOC(=O)C[C@H](C[N+](C)(C)C)OC(=O)CC(C)C` [ST 697], the Symptoms result is recorded as “convulsions (*)”.
The same measure, in the same setting: the result for `CCCCOC(=O)C[C@H](C[N+](C)(C)C)OC(=O)CC(C)C` [ST 683] reads “convulsions (*)”.
Still for that read-out and setting: the result for `CCCCCCCOC(=O)C[C@H](C[N+](C)(C)C)OC(=O)C(C)C` [ST 713, isobutyryl L-carnitine heptyl ester chloride] reads “convulsions (*)”.

The same series, now with this note: dose 1000 (mg/kg per os), dead/treated, 4 animals/dose.
For `CCCCCCCOC(=O)C[C@H](C[N+](C)(C)C)OC(=O)CC(C)C` [ST 697], the Death rate is 4/4.
Same read-out and setting: the result for `CCCCOC(=O)C[C@H](C[N+](C)(C)C)OC(=O)CC(C)C` [ST 683] reads 4/4; that for `CCCCCCCOC(=O)C[C@H](C[N+](C)(C)C)OC(=O)C(C)C` [ST 713, isobutyryl L-carnitine heptyl ester chloride], 4/4.
Still for that read-out and setting: the same measure for `CCCCCCCCCCCOC(=O)C[C@H](C[N+](C)(C)C)OC(=O)CC(C)C` [ST 722, isovaleryl L-carnitine undecyl ester chloride]: 0/4.

The series is the same for the next values; noted with them: dose 1000 (mg/kg per os), n.e. = no effect, (*) = in connection with death rate only.
Regarding `CCCCCCCOC(=O)C[C@H](C[N+](C)(C)C)OC(=O)CC(C)C` [ST 697], the Symptoms entry is “convulsions (*)”.
Still for that read-out and setting: the same measure for `CCCCOC(=O)C[C@H](C[N+](C)(C)C)OC(=O)CC(C)C` [ST 683]: “convulsions (*)”; for `CCCCCCCOC(=O)C[C@H](C[N+](C)(C)C)OC(=O)C(C)C` [ST 713, isobutyryl L-carnitine heptyl ester chloride]: “convulsions (*)”; for `CCCCCCCCCCCOC(=O)C[C@H](C[N+](C)(C)C)OC(=O)CC(C)C` [ST 722, isovaleryl L-carnitine undecyl ester chloride]: “salivation, diarrhea”.

For another series, the system named is Rat portal vein. In words: Rat portal vein: contractions evoked by high K+ concentrations. The settings on record: at a concentration of 10 mg/ml. From the text: The effect of the compound on the contractions evoked by high K^+ concentrations in the rat portal vein has been tested according to Shetty S.S. et al., Europ. J. Pharm. 141, 485 (1989).
In the case of `CCCCCCCCCCCOC(=O)C[C@H](C[N+](C)(C)C)OC(=O)CC(C)C` [ST 722, isovaleryl L-carnitine undecyl ester chloride], the “effect on the contractions evoked by high K^+ concentrations in the rat portal vein” value is “inactive”.

For another series, the system named is conscious spontaneously hypertensive rats (SHR). The series is described as follows: Effect on blood pressure and heart rate in conscious SHR. It is filed as in vivo. The note with it: oral 100 mg/kg, 1, 2 and 4 hours after administration. The procedure: The effect of the substance has been tested after oral administration of 100 mg/kg to conscious spontaneously hypertensive rats (SHR). No changes of blood pressure and heart rate were observed 1, 2 and 4 hours after the administration. The experimental procedure was run according to Yeer T.T. et al, Life Sciences 22, 359 (1978).
Regarding `CCCCCCCCCCCOC(=O)C[C@H](C[N+](C)(C)C)OC(=O)CC(C)C` [ST 722, isovaleryl L-carnitine undecyl ester chloride], the “changes of blood pressure” value is on record as “No changes” and the “changes of heart rate” value was “No changes”.

In a further series the target is sites associated to calcium channels labeled by ^3H-Verapamil. In words: Binding to Ca++ channel sites labelled by 3H-Verapamil in rat brain. The note with it: rat brain cortex membranes; ^3H-Verapamil (10 µM), 20' at 37°C; read-out: IC50 Uptake sites of Ca^++ channels labelled with ^3H-Verapamil. The procedure:
as §1, §2, §3, §4, §5, §6
Consider `CCCCCCCOC(=O)C[C@H](C[N+](C)(C)C)OC(=O)CC(C)C` [ST 697], for which the half-inhibitory concentration (IC50) amounted to 1.5 µM.
Still for that read-out and setting: the result for `CCCCOC(=O)C[C@H](C[N+](C)(C)C)OC(=O)CC(C)C` [ST 683] reads 2.4 µM.
Same read-out and setting: the result for `CCCCCCCOC(=O)C[C@H](C[N+](C)(C)C)OC(=O)C(C)C` [ST 713, isobutyryl L-carnitine heptyl ester chloride] reads 1.2 µM; that for `CCCCCCCCCCCOC(=O)C[C@H](C[N+](C)(C)C)OC(=O)CC(C)C` [ST 722, isovaleryl L-carnitine undecyl ester chloride], 0.38 µM.

A further series addresses sites associated to calcium channels labeled by ^3H-Diltiazem. In words: Binding to Ca++ channel sites labelled by 3H-Diltiazem in rat brain. The note with it: rat brain cortex membranes; ^3H-d-cis Diltiazem 4 nM, 60' at 30°C; read-out: IC50 Uptake sites of Ca^++ channels labelled with ^3H-Diltiazem. The procedure:
as §1, §2, §3, §4, §5, §6
Turning to `CCCCCCCOC(=O)C[C@H](C[N+](C)(C)C)OC(=O)CC(C)C` [ST 697], the half-maximal inhibitory concentration (IC50) was 0.5 µM.
Same read-out and setting: the same measure for `CCCCOC(=O)C[C@H](C[N+](C)(C)C)OC(=O)CC(C)C` [ST 683]: 15 µM; for `CCCCCCCOC(=O)C[C@H](C[N+](C)(C)C)OC(=O)C(C)C` [ST 713, isobutyryl L-carnitine heptyl ester chloride]: 1.3 µM; for `CCCCCCCCCCCOC(=O)C[C@H](C[N+](C)(C)C)OC(=O)CC(C)C` [ST 722, isovaleryl L-carnitine undecyl ester chloride]: 1.4 µM.

The values are drawn from patent EP0559625B1, “Esters of L-carnitine and acyl L-carnitine endowed with muscle relaxant activityselective on gastrointestinal tract and pharmaceutical compositions containing same” (Sigma-Tau Industrie Farmaceutiche Riunite S.p.A., priority 1992, dated 1993).
